The test system of assay [1] is p-ERK in AsPC-1 cells (KRAS G12D mutation). Nature of the assay: Cell p-ERK assay (HTRF) in AsPC-1 cells. It counts as cell-based, human. The settings on record: Homo sapiens, ASPC1, 3 h, AsPC-1 cells, 3 h compound incubation, HTRF p-ERK T202/Y204; read-out: AsPC-1 p-ERK IC50. In outline:
(§1)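 AsPC-1 (10000/well) or NCI-H441 (20000/well) cells were seeded in RPMI-1640 with 10% FBS, grown overnight, then exposed to 3.16-fold compound dilutions (0.1% DMSO) for 3 h at 37 °C. Lysates were read for phospho-ERK T202/Y204 by HTRF; IC50 came from four-parameter fits of inhibition versus DMSO and blank wells.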
On the technique in general: In TR-FRET formats the signal depends on donor and acceptor labels being close together.

For assay [2], the system named is p-ERK in NCI-H441 cells (KRAS G12V mutation). The assay is described as follows: Cell p-ERK assay (HTRF) in NCI-H441 cells. To be noted: Homo sapiens, NCI-H441, 3 h, NCI-H441 cells, 3 h compound incubation, HTRF p-ERK T202/Y204; read-out: H441 p-ERK IC50. It counts as cell-based, human. In outline: as §1

pIC50: −log10 of the molar value.

Broadly, the pIC50 is −log10 of the IC50, conventionally taken in molar units. Turning to `CCn1c(-c2cc(C#CCN3CCS(=O)(=O)CC3)cnc2[C@H](C)OC)c2c3cc(ccc31)-c1csc(n1)C[C@H](Nc1nnc3cc(C)ccn13)C(=O)N1CCC[C@H](N1)C(=O)OCC(C)(C)C2` (atropisomer, axis not shown; (Ra)) [Compound Z911, (6^3S,4S,Z)—(Ra)-1^2-(5-(3-(1,1-dioxidothiomorpholino)prop-1-yn-1-yl)-2-((S)-1-methoxyethyl)pyridin-3-yl)-1^1-ethyl-10,10-dimethyl-4-((7-methyl-[1,2,4]triazolo[4,3-a]pyridin-3-yl)amino)-6^1,6^2,6^3,6^4,6^5,6^6-hexahydro-1^1H-8-oxa-2(4,2)-thiazola-1(5,3)-indola-6(1.3)-pyridazinacycloundecaphane-5,7-dione], the negative-log IC50 (pIC50) in assay [1] was 8.65; in assay [2] it was 9.13.

For the origin of these results see US20260234165A1, “MACROCYCLIC COMPOUNDS, PREPARATION METHOD THEREFOR, AND USE THEREOF” (GENFLEET THERAPEUTICS (SHANGHAI) INC., priority 2004, published 2026).
